This is an account of results in publication PMC6271941, “Ruthenium^II(η^6-arene) Complexes of Thiourea Derivatives: Synthesis, Characterization and Urease Inhibition” (Molecules, 2014).

Like-named read-outs stand apart in the source and are kept apart here.

By IC50 is commonly meant the midpoint of a concentration-inhibition curve.

This assay concerns the target jack bean urease (Canavalia ensiformis, UniProt P07374). The assay can be described thus: biochemical. It counts as biochemical. The method, then: The urease inhibitory activity was measured according to a reported method with slight modifications. The enzyme (5 U/mL; 10 μL) and test compound in buffer (10 μL) were sequentially added to 40 μL of buffer (pH 8.2) containing 100 mM urea, 1 mM EDTA, 0.01 M K2HPO4 and 0.01 M […]. The mixture was pre-incubated for 30 min at 37 °C. The reaction was initiated by the addition of 40 μL of phenol reagent (1%, w/v phenol, 0.005%, w/v sodium nitroprusside) and 40 μL of alkali reagent (0.5%, w/v NaOH, 0.1% active chloride NaOCl) to each well. After 10 min of incubation at 37 °C, the absorbance was measured at 630 nm using a Microplate reader (Bio-Tek ELx 800^TM, Instruments, Inc. USA). All the experiments were carried out with their respective controls in triplicate. Thiourea (0.1 mM well^−1) was used as a positive control.

The mark [1] stands for this setting: enzyme 5 U/mL, 100 mM urea, buffer pH 8.2, 30 min pre-incubation at 37 °C, absorbance at 630 nm, triplicate, read-out: Inhibitory activity IC50 against jack bean urease.

Sequence of jack bean urease (P07374 whole entry, looked up): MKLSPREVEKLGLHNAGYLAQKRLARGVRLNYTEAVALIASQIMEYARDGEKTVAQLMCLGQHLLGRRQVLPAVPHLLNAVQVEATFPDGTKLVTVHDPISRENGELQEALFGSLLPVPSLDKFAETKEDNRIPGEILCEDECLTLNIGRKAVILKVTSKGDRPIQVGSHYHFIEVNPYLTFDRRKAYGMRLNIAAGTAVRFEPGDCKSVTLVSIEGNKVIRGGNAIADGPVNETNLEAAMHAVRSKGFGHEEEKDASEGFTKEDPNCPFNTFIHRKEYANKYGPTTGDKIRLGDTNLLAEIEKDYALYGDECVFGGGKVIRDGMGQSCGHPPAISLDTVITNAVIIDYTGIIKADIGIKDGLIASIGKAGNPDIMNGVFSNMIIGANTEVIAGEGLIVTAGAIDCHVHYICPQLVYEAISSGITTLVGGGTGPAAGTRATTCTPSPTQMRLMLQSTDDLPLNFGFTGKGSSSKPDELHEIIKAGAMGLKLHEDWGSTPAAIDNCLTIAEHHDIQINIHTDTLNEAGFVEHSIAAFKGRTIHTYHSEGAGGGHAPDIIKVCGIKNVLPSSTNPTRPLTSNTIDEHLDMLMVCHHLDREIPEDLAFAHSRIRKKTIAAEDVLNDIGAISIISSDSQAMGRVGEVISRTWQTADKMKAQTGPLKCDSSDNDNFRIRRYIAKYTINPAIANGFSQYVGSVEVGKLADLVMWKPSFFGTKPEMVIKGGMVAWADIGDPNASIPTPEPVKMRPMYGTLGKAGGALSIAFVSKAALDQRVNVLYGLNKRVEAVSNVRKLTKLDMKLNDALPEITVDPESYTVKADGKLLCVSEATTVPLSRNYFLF

As for “[Chlorido(η^6-p-cymene)(imidazolidine-2-thione)(triphenylphosphine)ruthenium(II)] hexafluoro-phosphate [Compound 11]”, the IC50 under setting [1] was over 600 µM.
On the same count and under the same terms, for “[Dichlorido(1,3-diazinane-2-thione)(η^6-p-cymene)ruthenium(II)] [Compound 7]” the value was over 600 µM.
For `NC(N)=S` [Thiourea], the IC50 under setting [1] amounted to 22.1 ± 1.4 µM. Moreover, the “fold more active than compound II (IC50 ratio)” value (jack bean urease, thiourea vs II) is reported as “more than 5 times”.
As for “[Dichlorido(1H-benzo[d]imidazole-2(3H)-thione)(η^6-p-cymene)ruthenium(II)] [Compound 8]”, the half-inhibitory concentration (IC50) under setting [1] was over 600 µM.
In turn, `S=C1NCCN1` [I, imidazolidine-2-thione] yielded an IC50 of 232 ± 27 µM.
“[Dichlorido(imidazolidine-2-thione)(η^6-biphenyl)ruthenium(II)] [Compound 10]”: under setting [1], the IC50 was over 600 µM.
Compound `S=C1NCCCN1` [II, 1,3-diazinane-2-thione] returned an IC50 of 118 ± 13 µM. In addition, under “jack bean urease, compared to thiourea as positive control”, the “urease inhibitory activity (in words)” value is listed as “most active in the tested series”.
As to “[Chlorido(η^6-p-cymene)(1H-benzo[d]imidazole-2(3H)-thione)(triphenylphosphine)ruthenium(II)] hexafluorophosphate [Compound 13]”, under setting [1], the IC50 is over 600 µM.
With “[Chlorido(η^6-p-cymene)(1,3-diazinane-2-thione)(triphenylphosphine)ruthenium(II)] hexafluoro-phosphate [Compound 12]”, the concentration for half-maximal inhibition (IC50) under setting [1] is over 600 µM.
Still for that read-out and setting: as for “[Dichlorido(imidazolidine-2-thione)(η^6-toluene)ruthenium(II)] [Compound 9]”, the figure is over 600 µM.
